In publication PMC7250896, “Inhibition of mitochondrial complex I by the novel compound FSL0260 enhances high salinity-stress tolerance in Arabidopsis thaliana” (Scientific Reports, 2020):

Test system: T1, mitochondrial complex I
T1 construct: native multi-subunit complex in sonicated mitochondria isolated from potato tuber; with Gamma-CA (complex I subunit detected in the pull-down)
Experiment: deamino-NADH oxidation ([…] nm) in sonicated mitochondria; OCR; pull-down with FSL0260-fixed agarose beads
Format: biochemical, Solanum tuberosum

Cc1ccc(S(=O)(=O)OCC2Oc3ccccc3C=C2C[n+]2ccccc2)cc1 (stereo not shown) [FSL0260]
IC50: 45.1 µM
